Measured values published in publication PMC4578723 (Biochemical and biophysical research communications, 2013).

Molecular target: PTEN (Homo sapiens, UniProt P60484)
Assay: absorbance […] nm, pNPP hydrolysis
Type: biochemical
Details: 100 mM pNPP; 25 °C; Tris-HCl pH 8.0

Sequence of PTEN (P60484 2-403): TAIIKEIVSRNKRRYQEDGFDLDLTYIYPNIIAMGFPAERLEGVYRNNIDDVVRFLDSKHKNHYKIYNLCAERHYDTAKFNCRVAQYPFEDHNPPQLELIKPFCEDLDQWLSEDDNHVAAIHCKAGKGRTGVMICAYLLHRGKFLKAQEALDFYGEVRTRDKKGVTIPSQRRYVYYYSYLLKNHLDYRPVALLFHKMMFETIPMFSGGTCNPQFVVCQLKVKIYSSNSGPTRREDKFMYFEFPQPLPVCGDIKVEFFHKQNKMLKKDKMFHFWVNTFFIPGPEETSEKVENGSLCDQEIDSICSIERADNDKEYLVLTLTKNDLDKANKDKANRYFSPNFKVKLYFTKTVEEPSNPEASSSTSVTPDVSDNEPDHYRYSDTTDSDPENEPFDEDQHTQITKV

`O=[N+]([O-])c1ccc(OP(=O)(O)O)cc1` [pNPP] was tested, and the “absorbance 405 nm, pNPP hydrolysis” value was “in vitro activity and affinity for pNPP substrate are similar for both INPP4B and PTEN”.
